Test results taken from patent US20250152592A1, “PHARMACEUTICAL COMPOSITION COMPRISING ALLOPURINOL, FEBUXOSTAT OR PHARMACEUTICALLY ACCEPTABLE SALT THEREOF FOR PREVENTION OR TREATMENT OF CHRONIC KIDNEY DISEASE IN SUBJECT HAVING HIGH SERUM URIC ACID CONCENTRATION” (Indream Healthcare Inc., priority 2022, published 2025).

System: patients with gout and a history of major cardiovascular diseases
Experiment: eGFR over time by average serum uric acid concentration, analysis of clinical trial data
Type: in vivo, human
Details: allopurinol group
Protocol: In order to evaluate non-inferiority of febuxostat to allopurinol related to cardiovascular risk, a clinical trial was designed and proceeded.
A multicenter, randomized, double-blind non-inferiority trial was performed. The details of the clinical trial design have been published previously. An independent data and safety monitoring committee with access to unblinded data monitored the clinical trial. The statistical analysis for the data and the safety monitoring committee was performed by an independent statistical group (WebbWrites).
The patients were regarded as having a history of major cardiovascular diseases, if they had myocardial infarction, hospitalization for unstable angina, stroke, hospitalization for transient ischemic attack, peripheral vascular disease, or diabetes mellitus symptoms. All participants provided a prior informed consent form.
The patients were randomly assigned so that they received febuxostat or allopurinol administered once a day in a double-blind manner. The randomization was stratified according to the estimated creatinine clearance at baseline (patient group having an estimated creatinine clearance ≥60 ml per minute vs patient group having an estimated creatinine clearance ≥30 and <60 ml per minute).
The dose of allopurinol was modified according to a kidney function. The patients with the estimated creatinine clearance 60 ml or more per minute i) initially received allopurinol at a dose of 300 mg once a day, and the dose was increased in 100 mg increments monthly until the patient had the serum uric acid concentration of less than 6.0 mg per deciliter or the dosage of allopurinol was 600 mg once a day. The patient having the estimated creatinine clearance of 30 ml or more and less than 60 ml per minute initially received 200 mg of allopurinol, and then the dose was increased in 100 mg increments until the patient either had the serum uric acid concentration of less than 6.0 mg per deciliter or was receiving the allopurinol dose of 400 mg once daily.
The dose of febuxostat was not modified according to the kidney function. The patients who were randomly assigned to receive febuxostat initially received 40 mg once a daily, and continued to receive the same dosage if the serum uric acid concentration was less than 6.0 mg per deciliter after 2 weeks of the treatment. If the serum uric acid concentration was higher than 6.0 mg per deciliter at 2nd week visit, the dose of febuxostat was increased to 80 mg once daily for the remainder of the trial.
During the period, the administration of a double-blind and double-dummy trial medications was guided by an interactive voice-response system which was a procedure to prevent unblinding for the patients whose dose was not adjusted. After completing dose adjustment, the urate level was concealed from the investigators, and the treatment was managed throughout the trial using the interactive voice-response system.
Outpatient visits were conducted according to the following schedule: during screening and randomization, and at 2, 4, 6, 8, 10, 12, and 24 weeks after the randomization, and every 6 months during the subsequent years of the trial. The patients with reduced kidney function or, the patients aged 65 years or older at randomization were visited at 9 and 15 months for monitoring the serum chemical profile. If the patient agreed to be monitored, but would not return for study visit, telephone contact was made, but such method was not preferred or recommended.
In order to confirm the effect of allopurinol and febuxostat on the kidney disease, the data obtained in the clinical trial described above was analyzed.

**Q.** For `Oc1ncnc2[nH]ncc12` [allopurinol], which “eGFR Mean (95% CI)” value (Baseline blood glucose level ≥126, Average UA <6, Baseline) is on record?
**A.** 63.77 (62.08-65.46) ml/min/1.73 m^2

**Q.** And the “eGFR Mean (95% CI)” value (Baseline blood glucose level ≥126, Average UA <6, Month 3)?
**A.** 63.92 (62.16-65.69) ml/min/1.73 m^2

**Q.** And the “eGFR Mean (95% CI)” value (Baseline blood glucose level ≥126, Average UA <6, Month 6)?
**A.** 63.77 (61.98-65.56) ml/min/1.73 m^2

**Q.** What about the “eGFR Mean (95% CI)” value (Baseline blood glucose level ≥126, Average UA <6, Month 12) of the same compound?
**A.** 64.33 (62.51-66.15) ml/min/1.73 m^2

**Q.** What about the “eGFR Mean (95% CI)” value (Baseline blood glucose level ≥126, Average UA <6, Month 18) of the same compound?
**A.** 64.04 (61.97-66.10) ml/min/1.73 m^2

**Q.** What about the “eGFR Mean (95% CI)” value (Baseline blood glucose level ≥126, Average UA <6, Month 24) of the same compound?
**A.** 64.60 (62.41-66.78) ml/min/1.73 m^2

**Q.** What about the “eGFR Mean (95% CI)” value (Baseline blood glucose level ≥126, Average UA <6, Month 30) of the same compound?
**A.** 63.32 (60.93-65.71) ml/min/1.73 m^2

**Q.** What about the “eGFR Mean (95% CI)” value (Baseline blood glucose level ≥126, Average UA <6, Month 36) of the same compound?
**A.** 63.57 (60.97-66.18) ml/min/1.73 m^2

**Q.** What about the “eGFR Mean (95% CI)” value (Baseline blood glucose level ≥126, Average UA <6, Month 42) of the same compound?
**A.** 62.14 (59.40-64.89) ml/min/1.73 m^2

**Q.** What about the “eGFR Mean (95% CI)” value (Baseline blood glucose level ≥126, Average UA <6, Month 48) of the same compound?
**A.** 64.42 (61.23-67.61) ml/min/1.73 m^2

**Q.** What about the “eGFR Mean (95% CI)” value (Baseline blood glucose level ≥126, Average UA <6, Month 54) of the same compound?
**A.** 64.35 (61.09-67.61) ml/min/1.73 m^2

**Q.** And the “eGFR Mean (95% CI)” value (Baseline blood glucose level ≥126, Average UA <6, Month 60)?
**A.** 64.49 (60.29-68.70) ml/min/1.73 m^2

**Q.** What about the “eGFR Mean (95% CI)” value (Baseline blood glucose level ≥126, Average UA <6, Week 2) of the same compound?
**A.** 63.46 (61.70-65.22) ml/min/1.73 m^2

**Q.** What about the “eGFR Mean (95% CI)” value (Baseline blood glucose level ≥126, Average UA ≥6, Baseline) of the same compound?
**A.** 62.56 (60.14-64.98) ml/min/1.73 m^2

**Q.** And the “eGFR Mean (95% CI)” value (Baseline blood glucose level ≥126, Average UA ≥6, Month 3)?
**A.** 62.44 (59.88-65.00) ml/min/1.73 m^2

**Q.** What about the “eGFR Mean (95% CI)” value (Baseline blood glucose level ≥126, Average UA ≥6, Month 6) of the same compound?
**A.** 61.37 (58.85-63.90) ml/min/1.73 m^2

**Q.** And the “eGFR Mean (95% CI)” value (Baseline blood glucose level ≥126, Average UA ≥6, Month 12)?
**A.** 62.57 (60.02-65.12) ml/min/1.73 m^2

**Q.** What about the “eGFR Mean (95% CI)” value (Baseline blood glucose level ≥126, Average UA ≥6, Month 18) of the same compound?
**A.** 60.70 (57.80-63.60) ml/min/1.73 m^2

**Q.** And the “eGFR Mean (95% CI)” value (Baseline blood glucose level ≥126, Average UA ≥6, Month 24)?
**A.** 60.72 (57.46-63.99) ml/min/1.73 m^2

**Q.** And the “eGFR Mean (95% CI)” value (Baseline blood glucose level ≥126, Average UA ≥6, Month 30)?
**A.** 60.06 (56.44-63.69) ml/min/1.73 m^2

**Q.** What about the “eGFR Mean (95% CI)” value (Baseline blood glucose level ≥126, Average UA ≥6, Month 36) of the same compound?
**A.** 59.78 (55.61-63.95) ml/min/1.73 m^2

**Q.** What about the “eGFR Mean (95% CI)” value (Baseline blood glucose level ≥126, Average UA ≥6, Month 42) of the same compound?
**A.** 57.66 (52.84-62.48) ml/min/1.73 m^2

**Q.** What about the “eGFR Mean (95% CI)” value (Baseline blood glucose level ≥126, Average UA ≥6, Month 48) of the same compound?
**A.** 56.80 (51.66-61.93) ml/min/1.73 m^2

**Q.** What about the “eGFR Mean (95% CI)” value (Baseline blood glucose level ≥126, Average UA ≥6, Month 54) of the same compound?
**A.** 57.15 (51.53-62.78) ml/min/1.73 m^2

**Q.** And the “eGFR Mean (95% CI)” value (Baseline blood glucose level ≥126, Average UA ≥6, Month 60)?
**A.** 54.70 (48.12-61.28) ml/min/1.73 m^2

**Q.** And the “eGFR Mean (95% CI)” value (Baseline blood glucose level ≥126, Average UA ≥6, Week 2)?
**A.** 62.27 (59.80-64.73) ml/min/1.73 m^2

**Q.** And the “eGFR Mean (95% CI)” value (DBP <80, Average UA <6, Baseline)?
**A.** 62.91 (61.68-64.15) ml/min/1.73 m^2

**Q.** And the “eGFR Mean (95% CI)” value (DBP <80, Average UA <6, Month 3)?
**A.** 63.26 (61.95-64.58) ml/min/1.73 m^2

**Q.** What about the “eGFR Mean (95% CI)” value (DBP <80, Average UA <6, Month 6) of the same compound?
**A.** 63.55 (62.23-64.87) ml/min/1.73 m^2

**Q.** What about the “eGFR Mean (95% CI)” value (DBP <80, Average UA <6, Month 12) of the same compound?
**A.** 64.71 (63.34-66.07) ml/min/1.73 m^2

**Q.** And the “eGFR Mean (95% CI)” value (DBP <80, Average UA <6, Month 18)?
**A.** 64.41 (62.91-65.90) ml/min/1.73 m^2

**Q.** What about the “eGFR Mean (95% CI)” value (DBP <80, Average UA <6, Month 24) of the same compound?
**A.** 64.00 (62.43-65.57) ml/min/1.73 m^2

**Q.** What about the “eGFR Mean (95% CI)” value (DBP <80, Average UA <6, Month 30) of the same compound?
**A.** 64.49 (62.77-66.21) ml/min/1.73 m^2

**Q.** And the “eGFR Mean (95% CI)” value (DBP <80, Average UA <6, Month 36)?
**A.** 63.61 (61.80-65.43) ml/min/1.73 m^2

**Q.** And the “eGFR Mean (95% CI)” value (DBP <80, Average UA <6, Month 42)?
**A.** 63.91 (61.95-65.87) ml/min/1.73 m^2

**Q.** And the “eGFR Mean (95% CI)” value (DBP <80, Average UA <6, Month 48)?
**A.** 64.88 (62.69-67.07) ml/min/1.73 m^2

**Q.** And the “eGFR Mean (95% CI)” value (DBP <80, Average UA <6, Month 54)?
**A.** 64.19 (61.76-66.62) ml/min/1.73 m^2

**Q.** What about the “eGFR Mean (95% CI)” value (DBP <80, Average UA <6, Month 60) of the same compound?
**A.** 64.73 (61.86-67.61) ml/min/1.73 m^2

**Q.** And the “eGFR Mean (95% CI)” value (DBP <80, Average UA <6, Week 2)?
**A.** 62.85 (61.57-64.14) ml/min/1.73 m^2

**Q.** And the “eGFR Mean (95% CI)” value (DBP <80, Average UA ≥6, Baseline)?
**A.** 60.15 (58.18-62.12) ml/min/1.73 m^2

**Q.** What about the “eGFR Mean (95% CI)” value (DBP <80, Average UA ≥6, Month 3) of the same compound?
**A.** 61.22 (59.20-63.24) ml/min/1.73 m^2

**Q.** And the “eGFR Mean (95% CI)” value (DBP <80, Average UA ≥6, Month 6)?
**A.** 61.19 (59.14-63.24) ml/min/1.73 m^2

**Q.** What about the “eGFR Mean (95% CI)” value (DBP <80, Average UA ≥6, Month 12) of the same compound?
**A.** 60.39 (58.37-62.42) ml/min/1.73 m^2

**Q.** What about the “eGFR Mean (95% CI)” value (DBP <80, Average UA ≥6, Month 18) of the same compound?
**A.** 60.06 (57.73-62.40) ml/min/1.73 m^2

**Q.** What about the “eGFR Mean (95% CI)” value (DBP <80, Average UA ≥6, Month 24) of the same compound?
**A.** 59.51 (56.88-62.15) ml/min/1.73 m^2

**Q.** And the “eGFR Mean (95% CI)” value (DBP <80, Average UA ≥6, Month 30)?
**A.** 59.37 (56.35-62.39) ml/min/1.73 m^2

**Q.** What about the “eGFR Mean (95% CI)” value (DBP <80, Average UA ≥6, Month 36) of the same compound?
**A.** 58.89 (55.43-62.34) ml/min/1.73 m^2

**Q.** What about the “eGFR Mean (95% CI)” value (DBP <80, Average UA ≥6, Month 42) of the same compound?
**A.** 57.48 (53.76-61.19) ml/min/1.73 m^2

**Q.** What about the “eGFR Mean (95% CI)” value (DBP <80, Average UA ≥6, Month 48) of the same compound?
**A.** 59.25 (55.00-63.51) ml/min/1.73 m^2

**Q.** What about the “eGFR Mean (95% CI)” value (DBP <80, Average UA ≥6, Month 54) of the same compound?
**A.** 58.18 (53.60-62.76) ml/min/1.73 m^2

**Q.** And the “eGFR Mean (95% CI)” value (DBP <80, Average UA ≥6, Week 2)?
**A.** 61.16 (59.19-63.13) ml/min/1.73 m^2

**Q.** What about the “eGFR Mean (95% CI)” value (No congestive cardiac failure history, Average UA <6, Baseline) of the same compound?
**A.** 66.85 (65.82-67.88) ml/min/1.73 m^2
